Laboratory results reported in ChEMBL document CHEMBL1137396, “Discovery of (1R,5S)-N-[3-amino-1-(cyclobutylmethyl)-2,3-dioxopropyl]- 3-[2(S)-[[[(1,1-dimethylethyl)amino]carbonyl]amino]-3,3-dimethyl-1-oxobutyl]- 6,6-dimethyl-3-azabicyclo[3.1.0]hexan-2(S)-carboxamide (SCH 503034), a selective, potent, orally bioavailable hepatitis C virus NS3 protease …” (J Med Chem, 2006).

Experiments:
NS3 = NS3 (Hepatitis C virus, UniProt A3EZJ3); assay: Binding affinity at HCV NS3 protease; design: species or system Hepatitis C virus subtype 1b
Chain of NS3 (A3EZJ3 whole entry): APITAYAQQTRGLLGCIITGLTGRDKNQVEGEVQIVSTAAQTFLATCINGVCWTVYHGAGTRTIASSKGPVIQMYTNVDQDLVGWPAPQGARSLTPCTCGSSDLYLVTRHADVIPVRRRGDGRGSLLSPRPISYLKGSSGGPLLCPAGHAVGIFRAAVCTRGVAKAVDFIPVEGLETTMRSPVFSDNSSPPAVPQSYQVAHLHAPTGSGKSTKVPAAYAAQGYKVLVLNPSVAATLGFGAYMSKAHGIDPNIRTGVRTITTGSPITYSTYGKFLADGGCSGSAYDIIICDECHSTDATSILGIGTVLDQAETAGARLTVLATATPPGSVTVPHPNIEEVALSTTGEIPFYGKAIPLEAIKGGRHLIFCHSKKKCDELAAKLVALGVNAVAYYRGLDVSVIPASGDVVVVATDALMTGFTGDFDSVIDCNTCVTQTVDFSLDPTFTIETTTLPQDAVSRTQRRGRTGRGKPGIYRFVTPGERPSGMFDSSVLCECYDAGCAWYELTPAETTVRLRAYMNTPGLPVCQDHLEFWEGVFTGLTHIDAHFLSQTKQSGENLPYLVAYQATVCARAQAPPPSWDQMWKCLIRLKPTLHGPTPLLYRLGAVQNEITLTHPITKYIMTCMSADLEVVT

[1] = Selectivity for human neutrophil elastase (HNE) over HCV NS3 protease
[2] = AUC(0-6h) in rat at 10 mg, po; assay type: ADME, organism-based; design: time < 6 hr, dose 10 mg, route oral; details: plasma
Huh-5-2 = assay: Cytotoxicity against hepatoma cell line containing HCV replicon measured as change in GAPDH RNA level; assay type: functional, Homo sapiens
Hepatocyte = assay: Inhibition of HCV replication in hepatocytes measured by cellular replicon assay; assay type: functional; details: Hepatitis C virus
[3] = AUC in rat; assay type: ADME, organism-based; details: plasma
[4] = AUC in rat at 10 mg/kg, po; assay type: ADME, organism-based; design: dose 10 mg/kg, route oral; details: plasma
[5] = Bioavailability in rat at 10 mg/kg, po; assay type: ADME, organism-based; details: in vivo

| Ki (NS3) | Selectivity ratio [1] | SMILES | also measured |
| --- | --- | --- | --- |
| 100 nM | 11 | CC(C)(C)OC(=O)N[C@H](C(=O)N1C[C@H]2[C@@H]([C@H]1C(=O)NC(CC1CC1)C(=O)C(N)=O)C2(C)C)C1CCCC1 (stereo partly drawn) | – |
| 1900 nM | – | CCCCNC(=O)C(=O)C(CCC)NC(=O)[C@@H]1[C@@H]2[C@H](CN1C(=O)[C@@H](NC(=O)OC(C)(C)C)C1CCCCC1)C2(C)C (stereo partly drawn) | – |
| 740 nM | – | CCC(NC(=O)[C@@H]1[C@@H]2[C@H](CN1C(=O)[C@@H](NC(=O)OC(C)(C)C)C1CCCCC1)C2(C)C)C(=O)C(N)=O (stereo partly drawn) | – |
| 70 nM | 160 | CC(C)COC(=O)N[C@H](C(=O)N1C[C@H]2[C@@H]([C@H]1C(=O)NC(CC1CC1)C(=O)C(N)=O)C2(C)C)C(C)(C)C (stereo partly drawn) | – |
| 55 nM | – | CCCC(NC(=O)[C@@H]1[C@@H]2[C@H](CN1C(=O)[C@@H](NC(=O)OC(C)(C)C)C1CCCCC1)C2(C)C)C(=O)C(=O)NCC(=O)N[C@H](C)c1ccccc1 (stereo partly drawn) | – |
| 92 nM | – | CCCC(NC(=O)[C@@H]1[C@@H]2[C@H](CN1C(=O)[C@@H](NC(=O)OC(C)(C)C)C1CCCCC1)C2(C)C)C(=O)C(=O)NCC(=O)N[C@@H](C)C1CCCCC1 (stereo partly drawn) | – |
| 150 nM | 100 | CC(C)OC(=O)N[C@H](C(=O)N1C[C@H]2[C@@H]([C@H]1C(=O)NC(CC1CC1)C(=O)C(N)=O)C2(C)C)C(C)(C)C (stereo partly drawn) | – |
| 300 nM | 2 | C=C(C)CC(NC(=O)[C@@H]1[C@@H]2[C@H](CN1C(=O)[C@@H](NC(=O)OC(C)(C)C)C1CCCCC1)C2(C)C)C(=O)C(N)=O (stereo partly drawn) | – |
| 1500 nM | – | CCCC(NC(=O)[C@@H]1[C@@H]2[C@H](CN1C(=O)[C@@H](NC(=O)OC(C)(C)C)C1CCCCC1)C2(C)C)C(=O)C(=O)NC (stereo partly drawn) | AUC(0-t) at 6 h [2]: 13.4 µM·h |
| > 12000 nM | – | CC(C)(C)OC(=O)N[C@H](C(=O)N1C[C@H]2[C@@H]([C@H]1C(=O)NC(CC1CCCCC1)C(=O)C(N)=O)C2(C)C)C1CCCCC1 (stereo partly drawn) | – |
| 270 nM | – | CC(C)(C)OC(=O)N[C@H](C(=O)N1C[C@H]2[C@@H]([C@H]1C(=O)NC(CC1CCC1)C(=O)C(N)=O)C2(C)C)C1Cc2ccccc2C1 (stereo partly drawn) | Activity (Huh-5-2): >5 µM; EC90 (Hepatocyte): 2000 nM |
| – | – | CC(C)(C)OC(=O)N[C@H](C(=O)N1C[C@H]2[C@@H]([C@H]1C(=O)NC(CC1CC1)C(=O)C(N)=O)C2(C)C)C(C)(C)C (stereo partly drawn) | Activity (Huh-5-2): >5 µM; EC90 (Hepatocyte): 600 nM |
| 50 nM | – | CCCC(NC(=O)[C@@H]1[C@@H]2[C@H](CN1C(=O)[C@@H](NC(=O)OC(C)(C)C)C1CCCCC1)C2(C)C)C(=O)C(=O)NCC(=O)OC(C)(C)c1ccccc1 (stereo partly drawn) | – |
| 300 nM | – | CC(C)(C)OC(=O)N[C@H](C(=O)N1C[C@H]2[C@@H]([C@H]1C(=O)NC(CC1CC1)C(=O)C(N)=O)C2(C)C)C1(C)CC1 (stereo partly drawn) | – |
| 150 nM | 370 | CC(C)(C)OC(=O)N[C@H](C(=O)N1C[C@H]2[C@@H]([C@H]1C(=O)NC(CC1CCCC1)C(=O)C(N)=O)C2(C)C)C1CCCCC1 (stereo partly drawn) | – |
| > 13000 nM | – | CCCC(NC(=O)[C@@H]1[C@@H]2[C@H](CN1C(=O)[C@@H](NC(=O)OC(C)(C)C)C1CCCCC1)C2(C)C)C(=O)C(=O)N(C)C (stereo partly drawn) | – |
| 210 nM | 19 | CC(C)[C@H](NC(=O)OC(C)(C)C)C(=O)N1C[C@H]2[C@@H]([C@H]1C(=O)NC(CC1CC1)C(=O)C(N)=O)C2(C)C (stereo partly drawn) | – |
| 50 nM | 90 | CC(C)(C)NC(=O)N[C@H](C(=O)N1C[C@H]2[C@@H]([C@H]1C(=O)NC(CC1CCC1)C(=O)C(N)=O)C2(C)C)C1CCCCC1 (stereo partly drawn) | – |
| 300 nM | – | CC(C)(C)[C@H](NC(=O)OC1CC1)C(=O)N1C[C@H]2[C@@H]([C@H]1C(=O)NC(CC1CC1)C(=O)C(N)=O)C2(C)C (stereo partly drawn) | – |
| 100 nM | – | CCCC(NC(=O)[C@@H]1[C@@H]2[C@H](CN1C(=O)[C@@H](NC(=O)OC(C)(C)C)C1CCCCC1)C2(C)C)C(=O)C(=O)NCC(=O)N[C@H](C)C1CCCCC1 (stereo partly drawn) | AUC [3]: 0.09 µM·h |
| 400 nM | 9 | CC(C)CC(NC(=O)[C@@H]1[C@@H]2[C@H](CN1C(=O)[C@@H](NC(=O)OC(C)(C)C)C1CCCCC1)C2(C)C)C(=O)C(N)=O (stereo partly drawn) | – |
| 100 nM | 270 | CN(C(=O)N[C@H](C(=O)N1C[C@H]2[C@@H]([C@H]1C(=O)NC(CC1CCC1)C(=O)C(N)=O)C2(C)C)C(C)(C)C)C(C)(C)C (stereo partly drawn) | – |
| 76 nM | 684 | CC(C)(C)OC(=O)N[C@H](C(=O)N1C[C@H]2[C@@H]([C@H]1C(=O)NC(CC1CCC1)C(=O)C(N)=O)C2(C)C)C(C)(C)C (stereo partly drawn) | Activity (Huh-5-2): >5 µM; EC90 (Hepatocyte): 800 nM |

| Ki (NS3) | Selectivity ratio [1] | SMILES | also measured |
| --- | --- | --- | --- |
| 150 nM | 2 | C=CCCC(NC(=O)[C@@H]1[C@@H]2[C@H](CN1C(=O)[C@@H](NC(=O)OC(C)(C)C)C1CCCCC1)C2(C)C)C(=O)C(N)=O (stereo partly drawn) | – |
| 220 nM | 55 | CC(C)(C)OC(=O)N[C@H](C(=O)N1C[C@H]2[C@@H]([C@H]1C(=O)NC(CC1CCC1)C(=O)C(N)=O)C2(C)C)C(C)(C)O (stereo partly drawn) | – |
| 60 nM | – | CCCC(NC(=O)[C@@H]1[C@@H]2[C@H](CN1C(=O)[C@@H](NC(=O)OC(C)(C)C)C1CCCCC1)C2(C)C)C(=O)C(=O)NCC(=O)NCc1cccs1 (stereo partly drawn) | AUC [3]: 0.73 µM·h |
| 50 nM | 2 | CC(C)(C)OC(=O)N[C@H](C(=O)N1C[C@H]2[C@@H](C1C(=O)NC(CC(F)(F)F)C(=O)C(N)=O)C2(C)C)C1CCCCC1 (stereo partly drawn) | Activity (Huh-5-2): >5 µM; EC90 (Hepatocyte): 700 nM |
| 80 nM | 100 | CC1(NC(=O)N[C@H](C(=O)N2C[C@H]3[C@@H]([C@H]2C(=O)NC(CC2CC2)C(=O)C(N)=O)C3(C)C)C(C)(C)C)CC1 (stereo partly drawn) | Activity (Huh-5-2): >5 µM; EC90 (Hepatocyte): 900 nM |
| 400 nM | – | CC(C)(C)OC(=O)N[C@H](C(=O)N1C[C@H]2[C@@H]([C@H]1C(=O)NC(CC1COC1)C(=O)C(N)=O)C2(C)C)C1CCCCC1 (stereo partly drawn) | Activity (Huh-5-2): >5 µM; EC90 (Hepatocyte): > 1000 nM |
| 130 nM | – | CCCC(NC(=O)[C@@H]1[C@@H]2[C@H](CN1C(=O)[C@@H](NC(=O)OC(C)(C)C)C1CCCCC1)C2(C)C)C(=O)C(=O)NCC(=O)NCC1CC1 (stereo partly drawn) | – |
| 140 nM | 160 | CC(C)NC(=O)N[C@H](C(=O)N1C[C@H]2[C@@H]([C@H]1C(=O)NC(CC1CC1)C(=O)C(N)=O)C2(C)C)C(C)(C)C (stereo partly drawn) | – |
| 110 nM | – | CCCC(NC(=O)[C@@H]1[C@@H]2[C@H](CN1C(=O)[C@@H](NC(=O)OC(C)(C)C)C1CCCCC1)C2(C)C)C(=O)C(=O)O (stereo partly drawn) | – |
| 790 nM | – | CCCC(NC(=O)[C@@H]1[C@@H]2[C@H](CN1C(=O)[C@@H](NC(=O)OC(C)(C)C)C1CCCCC1)C2(C)C)C(=O)C(=O)NCC(N)=O (stereo partly drawn) | – |
| 56 nM | – | CCCC(NC(=O)[C@@H]1[C@@H]2[C@H](CN1C(=O)[C@@H](NC(=O)OC(C)(C)C)C1CCCCC1)C2(C)C)C(=O)C(=O)NCC(=O)NCc1ccccc1 (stereo partly drawn) | AUC [3]: 1.27 µM·h |
| 36 nM | 3800 | CC(C)[C@H](C)OC(=O)N[C@H](C(=O)N1C[C@H]2[C@@H]([C@H]1C(=O)NC(CC1CCC1)C(=O)C(N)=O)C2(C)C)C(C)(C)C (stereo partly drawn) | Activity (Huh-5-2): >5 µM; EC90 (Hepatocyte): 700 nM |
| 100 nM | 3 | CCCC(NC(=O)[C@@H]1[C@@H]2[C@H](CN1C(=O)[C@@H](NC(=O)OC(C)(C)C)C1CCCCC1)C2(C)C)C(=O)C(N)=O (stereo partly drawn) | AUC(0-t) at 6 h [2]: 2.52 µM·h |
| 35 nM | 380 | C[C@@H](NC(=O)N[C@H](C(=O)N1C[C@H]2[C@@H]([C@H]1C(=O)NC(CC1CCC1)C(=O)C(N)=O)C2(C)C)C(C)(C)C)C(C)(C)C (stereo partly drawn) | Activity (Huh-5-2): >5 µM; EC90 (Hepatocyte): 400 nM |
| > 14000 nM | – | CC(C)(C)OC(=O)N[C@H](C(=O)N1C[C@H]2[C@@H]([C@H]1C(=O)NC1(C(=O)C(N)=O)CC1)C2(C)C)C1CCCCC1 | – |
| 82 nM | 49 | CC(C)(C)OC(=O)N[C@H](C(=O)N1C[C@H]2[C@@H]([C@H]1C(=O)NC(CC1CC1)C(=O)C(N)=O)C2(C)C)C1Cc2ccccc2C1 (stereo partly drawn) | Activity (Huh-5-2): >5 µM; EC90 (Hepatocyte): > 1000 nM |
| 16 nM | 4200 | CC(C)NC(=O)N[C@H](C(=O)N1C[C@H]2[C@@H]([C@H]1C(=O)NC(CC1CCC1)C(=O)C(N)=O)C2(C)C)C(C)(C)C (stereo partly drawn) | AUC [4]: 0.83 µM·h; Activity (Huh-5-2): >5 µM; bioavailability [5]: 13%; EC90 (Hepatocyte): 730 nM |
| 90 nM | 140 | CC(C)(C)OC(=O)N[C@H](C(=O)N1C[C@H]2[C@@H](C1C(=O)NC(CC1CCO1)C(=O)C(N)=O)C2(C)C)C1CCCCC1 (stereo partly drawn) | – |
| 280 nM | – | C=CCNC(=O)C(=O)C(CCC)NC(=O)[C@@H]1[C@@H]2[C@H](CN1C(=O)[C@@H](NC(=O)OC(C)(C)C)C1CCCCC1)C2(C)C (stereo partly drawn) | AUC(0-t) at 6 h [2]: 26 µM·h |
| 50 nM | 38 | CC(C)(C)NC(=O)N[C@H](C(=O)N1C[C@H]2[C@@H]([C@H]1C(=O)NC(CC1CC1)C(=O)C(N)=O)C2(C)C)C1CCCCC1 (stereo partly drawn) | – |
| 700 nM | – | CC(C)(C)OC(=O)N[C@H](C(=O)N1C[C@H]2[C@@H]([C@H]1C(=O)NC(CC1CCC1)C(=O)C(N)=O)C2(C)C)C1(C)CC1 (stereo partly drawn) | – |
| 25 nM | 23 | CC(C)(C)OC(=O)N[C@H](C(=O)N1C[C@H]2[C@@H]([C@H]1C(=O)NC(CC1CC1)C(=O)C(N)=O)C2(C)C)C1CCCCC1 (stereo partly drawn) | AUC [4]: 1.3 µM·h; Activity (Huh-5-2): >5 µM; bioavailability [5]: 3.4%; EC90 (Hepatocyte): 400 nM |
| 60 nM | 45 | CN(C(=O)N[C@H](C(=O)N1C[C@H]2[C@@H]([C@H]1C(=O)NC(CC1CC1)C(=O)C(N)=O)C2(C)C)C(C)(C)C)C(C)(C)C (stereo partly drawn) | Activity (Huh-5-2): >5 µM; EC90 (Hepatocyte): > 1000 nM |
